Test [1] addresses DNA damage-inducible transcript 3 protein (Mus musculus, UniProt P35639). It is filed as functional, Cricetulus griseus.
Test [2] concerns the target T1, X-box-binding protein 1 (Homo sapiens, UniProt P17861).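 Note: confirmatory dose-response counter-screen serving a CHOP assay.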
T1 sequence (P17861 whole entry): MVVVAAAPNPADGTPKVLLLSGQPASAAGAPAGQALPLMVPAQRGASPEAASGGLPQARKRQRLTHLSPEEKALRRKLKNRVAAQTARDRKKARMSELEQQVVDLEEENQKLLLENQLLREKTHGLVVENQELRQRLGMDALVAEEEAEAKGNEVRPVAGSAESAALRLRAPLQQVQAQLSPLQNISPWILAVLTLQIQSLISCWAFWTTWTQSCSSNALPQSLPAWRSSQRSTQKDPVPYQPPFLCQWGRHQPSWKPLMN
It is filed as functional, Cricetulus griseus.

Test [3] concerns H9c2. The test is described as follows: cells. It is filed as functional, cell-based. The settings on record: Rattus norvegicus, H9c2, Myocardium.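 Note: confirmatory concentration-response retest of ultra-high-throughput screening hits for modulation of myocardial damage; cell death induced by hydrogen peroxide oxidative stress; compound pretreatment for 60 min then peroxide exposure for 2 h; potency is for protecting the cells against peroxide damage rather than for killing them.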
Test [4] in a line: cytotoxicity in HEK-293T cells, dose response, cytotoxicity control for TCR NF-kB inhibitor project, luminescence, T-cell screen hits (AID 489026).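 Note: cells exposed to compound about 14 hours before the viability readout.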 It is filed as functional, cell-based.
The target of test [5] is T2, Voltage-gated N-type calcium channel alpha-1B subunit/Amyloid beta A4 precursor protein-binding family A member 1 (Homo sapiens, UniProt Q00975+Q02410). It is filed as protein assay.
T2 sequence (Q00975 whole entry): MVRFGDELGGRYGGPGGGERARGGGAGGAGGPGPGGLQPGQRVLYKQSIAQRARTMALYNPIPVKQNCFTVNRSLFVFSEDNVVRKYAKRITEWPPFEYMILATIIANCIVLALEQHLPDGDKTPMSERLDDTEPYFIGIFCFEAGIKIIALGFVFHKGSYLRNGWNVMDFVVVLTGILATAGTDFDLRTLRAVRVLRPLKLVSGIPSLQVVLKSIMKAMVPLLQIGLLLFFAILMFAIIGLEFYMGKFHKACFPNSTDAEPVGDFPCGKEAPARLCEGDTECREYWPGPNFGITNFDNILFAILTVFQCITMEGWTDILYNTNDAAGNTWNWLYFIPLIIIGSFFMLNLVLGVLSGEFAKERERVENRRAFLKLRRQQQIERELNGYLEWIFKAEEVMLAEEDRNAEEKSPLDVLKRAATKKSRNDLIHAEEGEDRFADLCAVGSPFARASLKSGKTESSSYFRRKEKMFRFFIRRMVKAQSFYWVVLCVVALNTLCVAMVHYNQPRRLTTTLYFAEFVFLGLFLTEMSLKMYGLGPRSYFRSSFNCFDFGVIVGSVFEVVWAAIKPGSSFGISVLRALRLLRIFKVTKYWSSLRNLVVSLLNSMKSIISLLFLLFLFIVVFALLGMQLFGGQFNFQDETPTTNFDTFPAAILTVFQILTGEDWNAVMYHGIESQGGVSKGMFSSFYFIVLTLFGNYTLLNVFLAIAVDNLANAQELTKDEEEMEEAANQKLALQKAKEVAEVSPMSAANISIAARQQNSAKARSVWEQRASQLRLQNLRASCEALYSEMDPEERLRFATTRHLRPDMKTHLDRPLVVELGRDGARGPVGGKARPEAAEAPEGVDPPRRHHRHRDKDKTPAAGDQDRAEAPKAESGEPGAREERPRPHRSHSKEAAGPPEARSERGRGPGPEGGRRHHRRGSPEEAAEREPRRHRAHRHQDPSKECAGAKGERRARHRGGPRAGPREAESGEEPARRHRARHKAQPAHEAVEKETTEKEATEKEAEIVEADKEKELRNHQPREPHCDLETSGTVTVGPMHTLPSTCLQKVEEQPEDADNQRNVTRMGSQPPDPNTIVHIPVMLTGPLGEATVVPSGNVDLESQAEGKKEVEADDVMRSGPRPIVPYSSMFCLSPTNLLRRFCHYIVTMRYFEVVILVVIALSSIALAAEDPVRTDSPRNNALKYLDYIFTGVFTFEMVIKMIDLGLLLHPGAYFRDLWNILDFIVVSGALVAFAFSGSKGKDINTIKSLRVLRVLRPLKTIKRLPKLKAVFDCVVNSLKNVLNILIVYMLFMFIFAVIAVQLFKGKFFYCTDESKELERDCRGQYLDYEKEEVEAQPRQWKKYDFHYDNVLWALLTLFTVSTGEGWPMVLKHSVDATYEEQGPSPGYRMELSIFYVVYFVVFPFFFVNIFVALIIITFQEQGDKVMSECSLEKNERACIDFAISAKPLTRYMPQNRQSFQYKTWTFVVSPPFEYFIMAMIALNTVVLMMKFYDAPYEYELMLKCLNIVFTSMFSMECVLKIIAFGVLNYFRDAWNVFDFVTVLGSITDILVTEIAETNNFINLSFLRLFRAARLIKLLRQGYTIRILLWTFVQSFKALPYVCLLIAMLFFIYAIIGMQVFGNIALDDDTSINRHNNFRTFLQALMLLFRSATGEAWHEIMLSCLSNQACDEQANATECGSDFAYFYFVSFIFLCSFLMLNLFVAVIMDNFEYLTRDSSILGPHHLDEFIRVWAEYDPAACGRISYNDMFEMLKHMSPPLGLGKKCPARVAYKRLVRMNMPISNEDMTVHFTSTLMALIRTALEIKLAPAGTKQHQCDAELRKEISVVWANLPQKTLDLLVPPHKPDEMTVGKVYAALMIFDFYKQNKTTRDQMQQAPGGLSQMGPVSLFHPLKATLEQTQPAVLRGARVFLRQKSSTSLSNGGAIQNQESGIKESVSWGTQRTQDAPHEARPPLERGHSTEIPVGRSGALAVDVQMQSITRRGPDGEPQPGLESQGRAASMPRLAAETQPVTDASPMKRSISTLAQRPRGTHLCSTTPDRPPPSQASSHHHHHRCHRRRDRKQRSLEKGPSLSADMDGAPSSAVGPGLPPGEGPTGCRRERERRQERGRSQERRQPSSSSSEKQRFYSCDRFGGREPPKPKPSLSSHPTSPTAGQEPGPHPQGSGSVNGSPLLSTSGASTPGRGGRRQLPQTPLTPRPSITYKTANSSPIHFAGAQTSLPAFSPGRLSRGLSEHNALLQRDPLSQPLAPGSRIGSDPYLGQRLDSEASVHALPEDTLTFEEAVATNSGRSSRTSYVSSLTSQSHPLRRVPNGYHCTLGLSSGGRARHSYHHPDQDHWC
T2 sequence (Q02410 whole entry): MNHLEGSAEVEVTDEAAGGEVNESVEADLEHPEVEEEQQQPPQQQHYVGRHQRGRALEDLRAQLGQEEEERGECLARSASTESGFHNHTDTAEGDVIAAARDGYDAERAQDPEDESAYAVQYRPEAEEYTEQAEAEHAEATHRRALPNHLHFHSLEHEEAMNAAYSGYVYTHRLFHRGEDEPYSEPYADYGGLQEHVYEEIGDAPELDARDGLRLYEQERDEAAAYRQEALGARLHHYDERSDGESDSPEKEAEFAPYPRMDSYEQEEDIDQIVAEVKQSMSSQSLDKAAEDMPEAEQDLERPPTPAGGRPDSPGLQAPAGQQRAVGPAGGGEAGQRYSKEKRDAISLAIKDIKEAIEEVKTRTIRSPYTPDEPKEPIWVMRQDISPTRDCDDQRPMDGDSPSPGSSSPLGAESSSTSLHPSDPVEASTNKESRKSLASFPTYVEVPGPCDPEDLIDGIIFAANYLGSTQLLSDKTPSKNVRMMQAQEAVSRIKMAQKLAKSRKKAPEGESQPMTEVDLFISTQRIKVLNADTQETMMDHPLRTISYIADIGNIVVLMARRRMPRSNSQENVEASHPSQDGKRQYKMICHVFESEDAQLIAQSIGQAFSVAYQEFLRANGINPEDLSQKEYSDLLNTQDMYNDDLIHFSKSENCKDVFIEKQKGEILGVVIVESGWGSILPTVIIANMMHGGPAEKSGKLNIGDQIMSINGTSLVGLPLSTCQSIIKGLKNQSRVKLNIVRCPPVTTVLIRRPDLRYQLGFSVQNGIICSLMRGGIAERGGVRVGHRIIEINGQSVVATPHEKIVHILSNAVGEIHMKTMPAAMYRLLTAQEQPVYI
The target in test [6] is T3, Heat shock factor protein 1 (Mus musculus, UniProt P38532).
T3 sequence (P38532 whole entry): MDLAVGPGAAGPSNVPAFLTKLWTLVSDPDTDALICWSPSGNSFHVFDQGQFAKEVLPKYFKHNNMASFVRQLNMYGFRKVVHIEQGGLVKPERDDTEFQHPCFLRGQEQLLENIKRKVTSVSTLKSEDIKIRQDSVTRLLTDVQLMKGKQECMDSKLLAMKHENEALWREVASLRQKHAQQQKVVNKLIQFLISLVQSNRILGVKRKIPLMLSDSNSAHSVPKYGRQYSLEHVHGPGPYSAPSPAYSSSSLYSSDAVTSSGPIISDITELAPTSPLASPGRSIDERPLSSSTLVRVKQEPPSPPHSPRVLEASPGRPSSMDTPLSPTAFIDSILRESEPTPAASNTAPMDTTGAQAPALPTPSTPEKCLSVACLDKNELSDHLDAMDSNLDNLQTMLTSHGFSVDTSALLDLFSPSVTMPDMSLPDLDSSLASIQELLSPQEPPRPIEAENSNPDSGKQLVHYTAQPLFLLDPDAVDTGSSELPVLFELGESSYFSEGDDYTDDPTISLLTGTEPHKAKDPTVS
The test is described as follows: inhibition of MG132-induced HSE-luciferase signal, confirmation, cell-based, NIH3T3, luminescence, dose retest (AID 2382).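 Note: NIH3T3 fibroblasts with HSF1-driven luciferase reporter stressed by proteasome inhibitor MG132; luminescence from HSF1-driven luciferase expression after 8 hours of MG132 stress.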 It is filed as functional.

Test [7] concerns the target Luciferin 4-monooxygenase (Photinus pyralis, UniProt P08659). Description: firefly luciferase enzyme inhibitors, dose response, biochemical, luminescence (AID 1891).
The nature of test [8]: Luminescence Cell-Based Dose Confirmation HTS to Identify Inhibitors of Platelet Dense Granule Release. [Related pubchem assays: 1663 (Primary HTS), 1678 (Summary of Project)]. It is filed as functional.
Test [9] addresses T2, Voltage-gated N-type calcium channel alpha-1B subunit/Amyloid beta A4 precursor protein-binding family A member 1. In kind it is protein assay. This is another data set of the same source.
For test [10], the system named is Saccharomyces cerevisiae. The test is described as follows: NALP1 inhibitor project selectivity study, Caspase-1/ASC signal blockade IC50 in S. cerevisiae (AID 488863). It is filed as functional, organism-based.
In test [11] the target is T4, NACHT, LRR and PYD domains-containing protein 1 (Homo sapiens, UniProt Q9C000).
T4 sequence (Q9C000 whole entry): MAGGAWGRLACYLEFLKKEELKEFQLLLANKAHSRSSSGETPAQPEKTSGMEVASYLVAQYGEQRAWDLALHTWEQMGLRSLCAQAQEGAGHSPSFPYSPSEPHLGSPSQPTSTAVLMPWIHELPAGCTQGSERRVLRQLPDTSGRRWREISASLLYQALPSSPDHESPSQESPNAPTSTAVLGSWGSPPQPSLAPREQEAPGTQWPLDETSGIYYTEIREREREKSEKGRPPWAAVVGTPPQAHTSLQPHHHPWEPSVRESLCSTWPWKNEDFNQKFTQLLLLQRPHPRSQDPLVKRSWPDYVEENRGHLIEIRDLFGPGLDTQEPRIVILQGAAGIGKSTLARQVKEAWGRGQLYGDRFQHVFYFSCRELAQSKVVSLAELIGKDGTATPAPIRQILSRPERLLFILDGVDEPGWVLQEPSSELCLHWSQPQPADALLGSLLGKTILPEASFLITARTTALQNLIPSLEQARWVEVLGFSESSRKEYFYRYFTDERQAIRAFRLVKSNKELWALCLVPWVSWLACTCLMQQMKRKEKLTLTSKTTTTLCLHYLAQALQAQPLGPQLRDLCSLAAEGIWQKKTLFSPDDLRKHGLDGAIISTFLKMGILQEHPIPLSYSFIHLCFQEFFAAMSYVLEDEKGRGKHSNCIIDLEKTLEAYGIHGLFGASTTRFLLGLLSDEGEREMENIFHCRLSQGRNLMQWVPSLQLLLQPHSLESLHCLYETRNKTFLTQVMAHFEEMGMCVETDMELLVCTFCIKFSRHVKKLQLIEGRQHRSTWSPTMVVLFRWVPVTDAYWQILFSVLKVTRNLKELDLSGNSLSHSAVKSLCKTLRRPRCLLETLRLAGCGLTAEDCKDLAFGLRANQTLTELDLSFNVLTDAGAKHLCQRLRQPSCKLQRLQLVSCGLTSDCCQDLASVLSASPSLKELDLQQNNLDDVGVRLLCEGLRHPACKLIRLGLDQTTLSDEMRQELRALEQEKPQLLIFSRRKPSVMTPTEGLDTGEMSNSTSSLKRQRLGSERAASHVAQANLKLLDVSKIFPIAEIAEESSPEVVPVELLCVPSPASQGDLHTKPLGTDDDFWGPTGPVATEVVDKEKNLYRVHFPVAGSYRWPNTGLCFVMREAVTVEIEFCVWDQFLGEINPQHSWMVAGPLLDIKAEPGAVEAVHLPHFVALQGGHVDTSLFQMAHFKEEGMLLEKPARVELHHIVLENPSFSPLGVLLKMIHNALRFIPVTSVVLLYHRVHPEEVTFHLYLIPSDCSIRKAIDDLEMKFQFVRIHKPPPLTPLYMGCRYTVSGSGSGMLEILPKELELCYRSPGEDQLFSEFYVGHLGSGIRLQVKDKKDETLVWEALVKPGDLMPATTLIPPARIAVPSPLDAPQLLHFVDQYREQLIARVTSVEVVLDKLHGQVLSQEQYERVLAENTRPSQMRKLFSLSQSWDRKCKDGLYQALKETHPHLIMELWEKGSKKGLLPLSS
Description: NALP1 inhibitors in yeast, dose response, luminescent (AID 488860). It is filed as functional.

The target in test [12] is Heat shock protein HSP 90-alpha (Homo sapiens, UniProt P07900). It is filed as functional, organism-based.
For test [13], the target named is T5, Short transient receptor potential channel 4 (Mus musculus, UniProt Q9QUQ5).
T5 sequence (Q9QUQ5 whole entry): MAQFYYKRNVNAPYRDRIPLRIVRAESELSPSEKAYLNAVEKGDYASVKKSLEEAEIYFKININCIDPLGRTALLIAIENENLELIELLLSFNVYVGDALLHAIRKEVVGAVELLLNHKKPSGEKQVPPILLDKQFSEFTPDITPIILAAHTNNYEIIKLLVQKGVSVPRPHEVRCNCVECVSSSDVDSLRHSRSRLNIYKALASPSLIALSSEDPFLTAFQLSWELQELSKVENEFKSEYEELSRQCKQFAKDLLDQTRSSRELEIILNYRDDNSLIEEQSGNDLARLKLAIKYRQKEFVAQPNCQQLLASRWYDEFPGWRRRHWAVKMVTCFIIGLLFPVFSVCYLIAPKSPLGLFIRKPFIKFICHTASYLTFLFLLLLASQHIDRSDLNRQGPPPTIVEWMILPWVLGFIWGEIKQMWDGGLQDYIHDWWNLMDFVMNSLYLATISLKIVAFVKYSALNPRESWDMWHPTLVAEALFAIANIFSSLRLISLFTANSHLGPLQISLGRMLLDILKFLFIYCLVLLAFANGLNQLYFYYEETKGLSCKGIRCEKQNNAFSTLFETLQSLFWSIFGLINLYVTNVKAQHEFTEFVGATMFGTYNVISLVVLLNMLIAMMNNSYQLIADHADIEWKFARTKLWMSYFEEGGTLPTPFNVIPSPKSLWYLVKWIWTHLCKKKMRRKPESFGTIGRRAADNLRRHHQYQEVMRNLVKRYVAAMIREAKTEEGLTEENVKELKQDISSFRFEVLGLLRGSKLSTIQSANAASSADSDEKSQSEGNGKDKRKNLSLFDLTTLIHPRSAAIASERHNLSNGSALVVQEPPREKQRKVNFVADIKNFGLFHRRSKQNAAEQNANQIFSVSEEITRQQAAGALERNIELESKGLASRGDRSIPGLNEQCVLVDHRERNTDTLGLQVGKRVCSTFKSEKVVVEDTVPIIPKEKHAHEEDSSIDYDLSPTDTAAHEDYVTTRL
Description: TRPC4 positive allosteric modulators, dose response, cell-based, HEK293 TRPC4/mu-opioid, Fluo-4 calcium, EC20 DAMGO (AID 434941).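 Note: HEK293 cells coexpressing TRPC4 and mu opioid receptor stimulated by EC20 DAMGO.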 In kind it is functional.

Test [14] addresses T6, Corticotropin-releasing factor receptor 2/Corticotropin-releasing factor-binding protein (Homo sapiens, UniProt P24387+Q13324).
T6 sequence (Q13324 whole entry): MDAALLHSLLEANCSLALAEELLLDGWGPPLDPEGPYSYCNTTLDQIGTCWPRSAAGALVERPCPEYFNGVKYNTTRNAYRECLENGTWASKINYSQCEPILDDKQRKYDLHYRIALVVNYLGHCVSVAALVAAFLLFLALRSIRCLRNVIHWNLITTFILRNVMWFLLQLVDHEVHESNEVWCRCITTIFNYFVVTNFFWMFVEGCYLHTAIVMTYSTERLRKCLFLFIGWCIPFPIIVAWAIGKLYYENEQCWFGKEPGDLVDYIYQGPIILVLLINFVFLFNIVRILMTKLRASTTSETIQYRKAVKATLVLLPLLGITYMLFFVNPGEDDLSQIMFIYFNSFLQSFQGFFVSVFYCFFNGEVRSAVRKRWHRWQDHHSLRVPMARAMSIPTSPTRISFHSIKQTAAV
T6 sequence (P24387 whole entry): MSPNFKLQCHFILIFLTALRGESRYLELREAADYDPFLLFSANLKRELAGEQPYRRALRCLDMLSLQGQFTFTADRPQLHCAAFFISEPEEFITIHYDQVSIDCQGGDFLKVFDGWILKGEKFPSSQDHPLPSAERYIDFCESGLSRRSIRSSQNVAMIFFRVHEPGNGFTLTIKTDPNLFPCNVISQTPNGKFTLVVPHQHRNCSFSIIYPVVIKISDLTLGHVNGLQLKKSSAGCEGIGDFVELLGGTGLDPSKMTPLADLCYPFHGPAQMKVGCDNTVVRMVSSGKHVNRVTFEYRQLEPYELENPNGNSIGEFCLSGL
The test is described as follows: activators of CRF receptor 2 with binding protein – uHTS hits, confirmation (AID 602473). It is filed as functional. The settings on record: read-out: EC50_Mean.

Test [15] addresses T7, Hexokinase (Trypanosoma brucei, UniProt Q38C41).
T7 sequence (Q38C41 whole entry): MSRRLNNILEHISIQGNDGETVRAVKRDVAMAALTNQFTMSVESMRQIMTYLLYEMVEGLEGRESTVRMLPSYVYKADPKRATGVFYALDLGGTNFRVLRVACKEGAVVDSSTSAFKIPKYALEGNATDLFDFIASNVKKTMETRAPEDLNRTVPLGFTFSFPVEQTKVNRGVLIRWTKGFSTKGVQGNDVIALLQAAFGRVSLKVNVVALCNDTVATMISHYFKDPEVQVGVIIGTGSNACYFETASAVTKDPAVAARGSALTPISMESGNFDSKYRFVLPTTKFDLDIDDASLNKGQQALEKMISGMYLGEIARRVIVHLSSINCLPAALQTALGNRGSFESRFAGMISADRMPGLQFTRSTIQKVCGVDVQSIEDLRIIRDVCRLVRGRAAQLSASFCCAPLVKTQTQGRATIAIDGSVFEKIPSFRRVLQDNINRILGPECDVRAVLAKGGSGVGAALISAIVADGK
The test is described as follows: Confirmation assay for inhibitors of Trypanosoma brucei hexokinase 1-Analogue-first series. [Related pubchem assays (depositor defined):AID1430, AID1632, AID2516, AID2560, AID2579, AID2600, AID449725, AID492951]. In kind it is functional.

Test [16] concerns the target T5, Short transient receptor potential channel 4. The test is described as follows: mouse TRPC4 channel activators, dose response, cell-based, HEK293 TRPC4/mu-opioid, Fluo-4 calcium (AID 434937). It is filed as functional.

By IC50 is commonly meant the concentration needed to halve the response being measured. One may read the AC50 as the concentration giving half of the maximal activity seen.

The source made the active and inactive calls. Bounds are passed on as bounds.

DNA damage-inducible transcript 3 protein, sequence (P35639 whole entry): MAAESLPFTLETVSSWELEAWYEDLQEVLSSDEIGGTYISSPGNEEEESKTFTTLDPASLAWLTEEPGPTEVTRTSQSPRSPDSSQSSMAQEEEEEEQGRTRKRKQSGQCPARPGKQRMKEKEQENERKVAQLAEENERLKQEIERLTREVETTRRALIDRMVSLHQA
Luciferin 4-monooxygenase, sequence (P08659 whole entry): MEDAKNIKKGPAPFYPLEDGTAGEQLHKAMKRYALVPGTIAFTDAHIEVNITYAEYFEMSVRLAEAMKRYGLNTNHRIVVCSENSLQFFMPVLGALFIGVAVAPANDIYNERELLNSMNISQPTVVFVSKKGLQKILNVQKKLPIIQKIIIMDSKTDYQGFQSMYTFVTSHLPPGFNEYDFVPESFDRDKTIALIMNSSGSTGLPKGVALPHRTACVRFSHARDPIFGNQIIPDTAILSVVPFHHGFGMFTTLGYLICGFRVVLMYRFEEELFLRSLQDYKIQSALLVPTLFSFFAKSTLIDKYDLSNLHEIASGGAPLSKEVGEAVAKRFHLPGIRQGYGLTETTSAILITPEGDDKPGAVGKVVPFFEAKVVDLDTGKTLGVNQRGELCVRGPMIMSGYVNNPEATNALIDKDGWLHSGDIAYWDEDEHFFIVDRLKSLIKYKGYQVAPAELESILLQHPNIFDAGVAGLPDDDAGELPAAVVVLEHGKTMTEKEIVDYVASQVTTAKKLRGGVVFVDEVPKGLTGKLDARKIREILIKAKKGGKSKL

Consider `CCOC(=O)Cc1csc(NC(=O)NC2(C(F)(F)F)Oc3ccc(Cl)cc3O2)n1` (stereo not given), for which the “Absolute IC50 (CHOP)” value in test [1] was 10 µM. The “Absolute IC50 (XBP1)” value in test [2] was 10 µM. In test [3], the IC50 is > 79 µM (inactive).
In the case of `COC(=O)c1ccccc1NC(=O)CSc1nc(-c2ccco2)cc(C(F)(F)F)n1`, the IC50 in [4] was > 80 µM (inactive).
For the compound `COC(=O)/C=C\C(=O)Nc1cccc([N+](=O)[O-])c1`, the IC50 in [5] is 10.1 µM (active); in test [9] it was 2.1 µM (active); in test [10], 7.1 µM (active); in test [11], 10.9 µM (active). Further, the values for the EC50 in test [6], in test [7] and in [8] were > 195 µM (not active), > 112 µM (not active) and 9.34 µM (active), respectively. In test [1], the “Absolute IC50 (CHOP)” value worked out at 10 µM. Besides, in test [12], the AC50 was 3.67 µM (active).
As to `CC(C)c1c(O)nc(SCCN(C)C)nc1O`, the EC50 in test [13] was 0.75 µM (active).
For `O=C(O)CCNc1nc(-c2ccccc2)c2cc(Br)ccc2n1`, the EC50 in test [13] was 0.13 µM (active); in [14] it was 2.38 µM (active).
On to `O=C(Cn1sc2ccccc2c1=O)Nc1cccc(I)c1`, for which the IC50 in test [15] is > 25 µM (inactive).
Same read-out and setting: the same measure for `O=c1c2cc(Br)ccc2[s+]([O-])n1-c1ccccc1` (stereo not given): > 25 µM (inactive).
Turning to `COc1ccc(/N=C(\C)C2=C(O)C(=O)N(CCO)C2c2ccc(Br)cc2)cc1` (stereo not given), the EC50 was 0.38 µM (active) in test [13] and 5.96 µM (active) in test [16].

For the origin of these results see ChEMBL document CHEMBL1201862, “PubChem BioAssay data set” (2004).
